Experimental data from patent publication US20250228858A1, “ANTI-CANCER COMBINATION THERAPY” (Boehringer Ingelheim International GmbH, priority 2023, published 2025).

Legend:
[1] = system: HER2-overexpressing human breast cancer cell line SUM190PT; test: SUM190PT subcutaneous xenograft, zongertinib with T-DM1; format: in vivo, NMRI-Foxn1^nu mice; settings: day 21, alone or combined; for stable disease: number of tumors out of 8, zongertinib 20 mg/kg qdx21, T-DM1 3 mg/kg q21dx1; for Regressions >30%: tumors regressed/total (partial response); for Regressions >30% / TGI: zongertinib 20 mg/kg qdx21 p.o., T-DM1 3 mg/kg q21dx1 i.v.
Method: The study is performed in human breast cancer cell line SUM190PT grown as subcutaneous xenografts in NMRI-Foxn1^nu mice. Day 1 was the first day, day 21 the last day of treatment and final day of analysis.
SUM190PT is a HER2-overexpressing human breast cancer cell line that can be obtained from Asterand Bioscience (BioIVT). Cells are cultured in T75, T175 and 5-Layer tissue culture flasks at 37° C. and 5% CO2. The medium used is ACL-4 (Thermo Fisher Scientific #041-95574M Custom Batch) supplemented with 0.5% bovine serum albumin (JHR 85-041-025), 0.02 mg/ml insulin (Sigma I5500), 0.01 mg/ml transferrin (Sigma T-2252), 25 nM sodium selenite (Sigma S9133), 50 nM Hydrocortisone (Sigma H-4001), 1 ng/ml Epidermal Growth Factor (unfiltered, Sigma E4127), 0.01 mM ethanolamine (Sigma E-0135), 0.01 mM phosphorylethanolamine (Medchem HY-N5034), 100 pM triiodothyronine (Sigma T5516), 0.5 mM sodium pyruvate (Sigma S8636) and 2 mM L-glutamine (Gibco 11539876). Cultures are split once weekly with a ratio of 1:2.
To establish subcutaneous tumors, SUM190PT cells are harvested by centrifugation, washed and resuspended in PBS+2.5% FCS+50% Matrigel (Corning #2165001) at 5×10^7 cells/ml. 100 μl cell suspension containing 5×10^6 cells is injected subcutaneously into the right flank of the mice (1 site per mouse). Mice are randomly distributed between the treatment and the vehicle control group (13 days after cell injection) when tumors are well established and have reached volumes of 100 to 180 mm^3.
Tumor volumes and side effects are monitored as described in Example 1 (see paragraph 1.1.6), except that control animals were analysed when the median tumor volume of the group reaches a size of approximately 700 mm^3.
The statistical evaluation of the tumor volume and the body weight is conducted on day 21 (last day of the study). Apart from this, statistical analysis was performed as described in Example 1 (see paragraph 1.1.7), with no evaluation of tumor growth after stop of treatment.

[2] = system: HER2-overexpressing human gastric cancer cell line NCI-N87; test: NCI-N87 subcutaneous xenograft, zongertinib with T-DM1; format: in vivo, NMRI-Foxn1^nu mice; settings: for Regressions >30% / TGI: day 21; for Regressions >30%: tumors regressed/total; for Time to reach 300 mm^3: median, after stop of treatment at day 21
Method: The study is performed in human gastric cancer cell line NCI-N87 grown as subcutaneous xenografts in NMRI-Foxn1^nu mice. Day 1 was the first day, day 21 the last day of treatment and day 22 the final day of analysis. […]
NCI-N87 is a HER2-overexpressing human gastric cancer cell line that can be obtained from the American Type Culture Collection (ATCC #CRL-5822). Cells are cultured in T175 tissue culture flasks at 37° C. and 5% CO2. The medium used is RPMI 1640 (ATCC #30-2001) supplemented with 10% fetal calf serum (FCS) (Thermo Scientific #SH 30084.03). Cultures are split twice weekly with a ratio of 1:2.
Mice are 6- to 10-week-old female NMRI-Foxn1^nu purchased from Taconic, Denmark. After arrival at the animal facility, mice are allowed to adjust to conditions at least for 5 days before they are used for the experiment. They are housed in Macrolon® type III cages in groups of 8 to 10 under pathogen-free, controlled and standardized conditions at 21.5±1.5° C. temperature, 55±10% humidity and 12-h light-dark cycle. Standardized diet (PROVIMI KLIBA) and autoclaved tap water are provided ad libitum. Subcutaneous microchips implanted under isoflurane anaesthesia are used to identify each mouse. Cage cards showing the study number, the animal identification number, the compound, the dose level, the administration route as well as the schedule remain with the animals throughout the study.
To establish subcutaneous tumors, NCI-N87 cells are harvested by centrifugation, washed and resuspended in PBS+5% FCS at 2.5×10^7 cells/ml. 100 μl cell suspension containing 2.5×10^6 cells is injected subcutaneously into the right flank of the mice (1 site per mouse).
The suspension is used for a maximum of 7 days.
T-DM1 (Kadcyla) can be purchased from Roche.
Mice in the control group are treated with vehicle, i.e.: • (i) 0.5% Natrosol, administered once daily for the duration of the treatment intragastrally by gavage needle with a volume of 10 ml/kg body weight; and • (ii) saline (0.9%), administered once every three weeks intravenously into the tail vein with a volume of 5 ml/kg.
Tumor volumes are measured three times a week with a caliper. The volume of each tumor [in mm^3] is calculated according to the formula: […]
To monitor side effects of treatment, mice are inspected daily for abnormalities and body weight is determined three times a week. […] In addition, animals with tumor sizes exceeding 1500 mm^3 in diameter, with ulcerating tumors or 18% body weight loss are euthanized for ethical reasons.
For a quick overview of possible treatment effects, the median of the tumor volume of each treatment group T is referred to the median of the control C as tumor growth inhibition (TGI) defined as: […]
To do so, the time until the tumor reached a critical volume of 300 mm^3 can be included as an additional evaluation parameter. If an animal is sacrificed for tumor necrosis without reaching the critical tumor volume, the time point is set to the last measurement time point and included as a censored observation.
The median survival time is derived from the Kaplan Meier survival curves per group as the time point with a survival probability (probability of reaching the critical tumor volume) of 0.5. For the treatment groups the median survival time is referred to the corresponding time of the control group as an estimate for the prolongation of the time to critical tumor volume by the therapy.

[3] = zongertinib 5 mg/kg qdx21 p.o., alone or combined with T-DM1 10 mg/kg q21dx1 i.v.
[4] = zongertinib 20 mg/kg qdx21 p.o., T-DM1 10 mg/kg q21dx1 i.v., alone or combined
[5] = zongertinib 20 mg/kg/day, T-DM1 10 mg/kg, alone or combined

| Molecule | stable disease [1] | Regressions >30% [1] | TGI [1] | Regressions >30% [2, 3] | Regressions >30% [2, 4] | TGI [2, 3] | TGI [2, 4] | Time to reach 300 mm^3 [2, 3] | effect on tumor growth (median tumor volumes over time) ([2]; zongertinib 5 mg/kg/day, alone or combined with T-DM1 10 mg/kg) | effect on tumor growth (median tumor volumes over time) [2, 5] | Time to reach 300 mm^3 [2, 4] |
| --- | --- | --- | --- | --- | --- | --- | --- | --- | --- | --- | --- |
| C=CC(=O)NC1CCN(c2ncc3ncnc(Nc4ccc(Oc5ccc6c(c5)ncn6C)c(C)c4)c3n2)CC1 [Zongertinib, N-{1-[8-({3-methyl-4-[(1-methyl-1H-1,3-benzodiazol-5-yl)oxy]phenyl}amino)-[1,3]diazino [5,4-d]pyrimidin-2-yl]piperidin-4-yl}prop-2-enamide] | no stable disease | 0/8 | 64% | 0/8 | 8/8 | 45% | 145% | 30.0 days | did not shrink tumors | induced deep and persistent tumor shrinkage | – |
| trastuzumab emtansine [T-DM1, reference compound] | 3 | 0/8 | 90% | – | 1/8 | – | 67% | – | – | suppressed the growth of NCI-N87 tumors but did not shrink them | 39.5 days |
